Reference: patent US20240360165A1, “INHIBITORS OF CYCLIN DEPENDENT KINASE 7 (CDK7)” (Syros Pharmaceuticals, Inc., priority 2016, published 2024)
Where two headings read alike, the source gives them in different places.

Columns and labels:
A673 cells = assay: Inhibition of proliferation of A673 cells (CyQUANT, 72 hour); format: cell-based, human; details: A673 cells, 72 hour, CyQUANT, read-out: Inhibition of Proliferation of A673 Cells (calculated IC50)
Summary of the method: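 Proliferation read-out by CyQUANT after a 72 h exposure, compounds spanning 4 μM–[…] in half-log steps. A673 cells cultured at 37° C under 5% CO2 in DMEM supplemented with 10% FBS plus 1 mM sodium pyruvate.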

[1] = biological target: T1, CDK12 (aa686-1082)/Cyclin K complex (Homo sapiens, UniProt Q9NYV4); assay: CDK12 inhibition assay (Caliper/LabChip EZ Reader kinase assay); format: biochemical; details: Table 1, CDK12 (aa686-1082)/Cyclin K 50 nM, ATP 2 mM, 3 hr at 27° C.
T1 construct: CDK12 (aa686-1082)/Cyclin K complex

CDK2/Cyclin E1 complex = CDK2/Cyclin E1 complex (Homo sapiens, UniProt P24941); assay: CDK2 inhibition assay (Caliper/LabChip EZ Reader kinase assay); format: biochemical; details: Table 1, CDK2/Cyclin E1 0.5 nM, ATP 2 mM, 35 min at 27° C.
Summary of the method: (§1)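 Activity read as fluorescent peptide conversion on a LabChip EZ Reader. For CDK2/Cyclin E1 (0.5 nM), substrate was 5-FAM-CDK7tide (2 μM) with 2 mM MgCl2; for CDK9/Cyclin T1 (8 nM), 5-FAM-CDK9tide (2 μM) with 10 mM MgCl2.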

[2] = biological target: CDK7/Cyclin H/MAT1 complex (Homo sapiens, UniProt P50613); assay: CDK7 inhibition assay (Caliper/LabChip EZ Reader kinase assay); format: biochemical; details: Table 1, CDK7/Cyclin H/MAT1 6 nM, ATP 2 mM, 35 min at 27° C.
Summary of the method: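 A Perkin Elmer Caliper/LabChip EZ Reader (Waltham, MA) platform served as the basis for this CDK7 kinase inhibition assay. The work was carried out by Biortus Biosciences, located in Jiangyin, Jiangsu Province, P.R. of China. Each CDK studied had its own kinase assay, and compounds were evaluated for their ability to block CDK7 activity.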

CDK9/Cyclin T1 complex = CDK9/Cyclin T1 complex (Homo sapiens, UniProt P50750); assay: CDK9 inhibition assay (Caliper/LabChip EZ Reader kinase assay); format: biochemical; details: Table 1, CDK9/Cyclin T1 8 nM, ATP 2 mM, 15 min at 27° C.
Summary of the method: as §1

HCC70 cells = assay: Inhibition of proliferation of HCC70 cells (CyQUANT Direct Cell Proliferation Assay, 72 hour); format: cell-based, human
Summary of the method: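 Human triple-negative breast cancer HCC70 cells cultured at 37° C, 5% CO2, with compound for 72 hour. Anti-proliferative effect read by CyQUANT Direct Cell Proliferation Assay. Dinaciclib, a CDK inhibitor analog and triptolide served as positive controls.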

[3] = Homo sapiens, HCC70, 72 h, read-out: Inhibition of Proliferation of HCC70 Cells (calculated IC50)
[4] = read-out: Inhibition of Proliferation of HCC70 Cells (calculated IC50)

CDK9/Cyclin T1 complex, sequence (P50750 whole entry, species assumed): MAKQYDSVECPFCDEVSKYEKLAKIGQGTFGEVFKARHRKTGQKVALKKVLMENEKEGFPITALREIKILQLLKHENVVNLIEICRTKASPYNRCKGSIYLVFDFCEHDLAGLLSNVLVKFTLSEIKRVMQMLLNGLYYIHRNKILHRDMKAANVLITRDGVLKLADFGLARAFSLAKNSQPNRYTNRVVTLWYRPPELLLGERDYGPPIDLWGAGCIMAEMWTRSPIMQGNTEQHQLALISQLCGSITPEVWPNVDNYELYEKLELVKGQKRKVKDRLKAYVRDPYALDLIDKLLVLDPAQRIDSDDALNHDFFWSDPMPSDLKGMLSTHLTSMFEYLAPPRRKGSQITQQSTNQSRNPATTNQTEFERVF
CDK9/Cyclin T1 complex, sequence (O60563 whole entry partner, species assumed): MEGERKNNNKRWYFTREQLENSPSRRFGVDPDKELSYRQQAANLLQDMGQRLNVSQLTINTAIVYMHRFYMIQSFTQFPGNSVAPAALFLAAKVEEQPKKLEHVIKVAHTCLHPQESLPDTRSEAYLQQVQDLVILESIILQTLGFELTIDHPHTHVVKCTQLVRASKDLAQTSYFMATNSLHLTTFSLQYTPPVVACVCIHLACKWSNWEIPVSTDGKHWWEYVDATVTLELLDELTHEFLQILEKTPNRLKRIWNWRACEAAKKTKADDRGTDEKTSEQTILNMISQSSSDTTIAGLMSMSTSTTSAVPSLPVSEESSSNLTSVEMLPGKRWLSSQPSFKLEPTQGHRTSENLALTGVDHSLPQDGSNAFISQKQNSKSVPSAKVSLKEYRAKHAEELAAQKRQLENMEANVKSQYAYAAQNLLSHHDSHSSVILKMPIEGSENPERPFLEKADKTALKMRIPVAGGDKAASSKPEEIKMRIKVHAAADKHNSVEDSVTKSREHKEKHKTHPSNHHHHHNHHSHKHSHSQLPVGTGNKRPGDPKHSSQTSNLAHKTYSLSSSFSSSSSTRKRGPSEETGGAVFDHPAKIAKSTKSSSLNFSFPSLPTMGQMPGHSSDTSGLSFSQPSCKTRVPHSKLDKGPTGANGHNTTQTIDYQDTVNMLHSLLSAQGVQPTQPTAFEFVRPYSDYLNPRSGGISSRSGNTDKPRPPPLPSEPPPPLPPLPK
T1 sequence (Q9NYV4 686-1082, species assumed): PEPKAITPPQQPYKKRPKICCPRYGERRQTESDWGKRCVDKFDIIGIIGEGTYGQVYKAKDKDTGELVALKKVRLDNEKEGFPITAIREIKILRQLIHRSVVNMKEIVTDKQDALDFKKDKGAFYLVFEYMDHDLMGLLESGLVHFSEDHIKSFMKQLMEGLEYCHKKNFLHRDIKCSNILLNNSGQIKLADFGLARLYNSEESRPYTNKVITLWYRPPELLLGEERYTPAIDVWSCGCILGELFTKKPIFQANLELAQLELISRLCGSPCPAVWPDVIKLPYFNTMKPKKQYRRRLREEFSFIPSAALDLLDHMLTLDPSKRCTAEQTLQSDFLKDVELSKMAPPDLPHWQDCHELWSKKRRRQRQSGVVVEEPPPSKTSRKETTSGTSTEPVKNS
T1 sequence (O75909 whole entry partner, species assumed, the tested form may be a part): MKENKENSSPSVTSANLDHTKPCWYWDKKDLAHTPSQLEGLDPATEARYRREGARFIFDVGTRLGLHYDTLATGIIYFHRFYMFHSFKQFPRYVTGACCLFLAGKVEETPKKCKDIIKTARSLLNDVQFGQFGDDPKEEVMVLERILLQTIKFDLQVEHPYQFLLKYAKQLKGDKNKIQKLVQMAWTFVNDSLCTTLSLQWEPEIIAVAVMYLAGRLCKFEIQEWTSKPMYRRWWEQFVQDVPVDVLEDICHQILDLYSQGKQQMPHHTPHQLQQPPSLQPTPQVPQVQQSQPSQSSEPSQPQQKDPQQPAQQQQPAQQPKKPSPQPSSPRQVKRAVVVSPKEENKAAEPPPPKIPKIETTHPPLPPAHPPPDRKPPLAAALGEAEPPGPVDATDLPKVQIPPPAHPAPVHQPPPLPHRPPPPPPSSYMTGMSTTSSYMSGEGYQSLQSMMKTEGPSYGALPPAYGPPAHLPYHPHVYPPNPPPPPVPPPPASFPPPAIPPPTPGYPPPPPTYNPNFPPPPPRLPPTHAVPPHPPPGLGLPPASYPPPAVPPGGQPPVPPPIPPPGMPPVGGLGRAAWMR
CDK7/Cyclin H/MAT1 complex, sequence (P50613 whole entry, species assumed): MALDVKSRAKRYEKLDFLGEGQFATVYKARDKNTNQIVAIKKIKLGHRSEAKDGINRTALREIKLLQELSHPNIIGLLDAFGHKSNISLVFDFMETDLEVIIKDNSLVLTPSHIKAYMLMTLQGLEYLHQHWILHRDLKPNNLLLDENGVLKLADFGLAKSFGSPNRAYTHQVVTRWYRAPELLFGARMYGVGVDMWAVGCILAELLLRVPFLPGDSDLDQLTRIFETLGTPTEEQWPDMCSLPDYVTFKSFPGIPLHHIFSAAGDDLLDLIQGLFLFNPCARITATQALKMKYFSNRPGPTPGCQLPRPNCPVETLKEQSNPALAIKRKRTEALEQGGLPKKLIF
CDK7/Cyclin H/MAT1 complex, sequence (P51946 whole entry partner, species assumed): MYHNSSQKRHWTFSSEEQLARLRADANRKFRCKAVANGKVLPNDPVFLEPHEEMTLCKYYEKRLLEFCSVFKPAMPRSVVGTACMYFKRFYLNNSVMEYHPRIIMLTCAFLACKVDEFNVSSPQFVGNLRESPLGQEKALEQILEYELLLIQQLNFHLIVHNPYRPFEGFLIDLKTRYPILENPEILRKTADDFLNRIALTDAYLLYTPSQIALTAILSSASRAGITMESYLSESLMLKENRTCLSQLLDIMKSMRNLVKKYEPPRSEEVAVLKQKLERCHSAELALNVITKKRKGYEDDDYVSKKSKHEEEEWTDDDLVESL
CDK7/Cyclin H/MAT1 complex, sequence (P51948 whole entry partner, species assumed): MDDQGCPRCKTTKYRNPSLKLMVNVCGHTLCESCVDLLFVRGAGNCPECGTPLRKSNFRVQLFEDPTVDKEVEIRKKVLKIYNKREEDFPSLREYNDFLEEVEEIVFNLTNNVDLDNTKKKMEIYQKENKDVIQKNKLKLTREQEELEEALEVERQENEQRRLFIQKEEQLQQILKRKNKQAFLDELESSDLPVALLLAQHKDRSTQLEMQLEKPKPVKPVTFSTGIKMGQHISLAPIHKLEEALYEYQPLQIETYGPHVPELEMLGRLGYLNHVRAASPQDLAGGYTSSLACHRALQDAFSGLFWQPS

Row | SMILES | IC50 [1] [µM] | IC50 (CDK2/Cyclin E1 complex) [µM] | IC50 [2] [µM] | IC50 (CDK9/Cyclin T1 complex) [µM] | IC50 (A673 cells; Homo sapiens, A673, 72 h) [µM] | IC50 (HCC70 cells; [3]) [µM] | also measured
1 | C=CC(=O)N1CCC(CO[C@H]2CNC[C@@H](Nc3ncc(C(F)(F)F)c(-c4c[nH]c5c(S(C)(=O)=O)cccc45)n3)C2)CC1 [Compound 264] | 0.2 to 5 | > 5 | 0.02 to 0.2 | > 5 | < 0.02 | 0.1 to 1 | 
2 | Cc1n[nH]cc1-c1cccc2c(-c3nc(NC4CCCNC4)ncc3C(F)(F)F)c[nH]c12 (stereo in doubt) [Compound 175] | 0.2 to 5 | 0.2 to 5 | < 0.02 | 0.02 to 0.2 | < 0.02 | 1 to 5 | 
3 | FC(F)(F)c1cnc(N[C@H]2CCCNC2)nc1-c1c[nH]c2c(-c3cn[nH]c3)cccc12 [Compound 170] | 0.02 to 0.2 | 0.2 to 5 | < 0.02 | 0.2 to 5 | < 0.02 | < 0.1 | 
4 | CCc1cnc(N[C@H]2CCCNC2)nc1-c1c[nH]c2c(S(C)(=O)=O)c(C#N)ccc12 [Compound 263, 3-[5-ethyl-2-[[(3S)-3-piperidyl]amino]pyrimidin-4-yl]-7-methylsulfonyl-1H-indole-6-carbonitrile] | > 5 | > 5 | < 0.02 | > 5 | 0.02 to 0.2 | 0.1 to 1 | 
5 | Cn1cc(-c2nc(NC3CCCNC3)ncc2C(F)(F)F)c2cccc(C#N)c21 (centres unmarked) [Compound 279] | > 5 | > 5 | 0.02 to 0.2 | > 5 | 0.2 to 5 | 1 to 5 | 
6 | OC1CCC(c2cccc3c(-c4nc(N[C@H]5CCCNC5)ncc4C(F)(F)F)c[nH]c23)CC1 (some centres unmarked) [Compound 185] | 0.2 to 5 | 0.02 to 0.2 | < 0.02 | 0.2 to 5 |  |  | IC50 (A673 cells): < 0.02 µM; IC50 (HCC70 cells; [4]): < 0.1 µM
7 | CS(=O)(=O)c1ccc2c(-c3nc(N[C@H]4CCCNC4)ncc3C(F)(F)F)c[nH]c2c1 [Compound 199, 4-(6-methylsulfonyl-1H-indol-3-yl)-N-[(3S)-3-piperidyl]-5-(trifluoromethyl) pyrimidin-2-amine] | 0.2 to 5 | 0.2 to 5 | < 0.02 | 0.2 to 5 | < 0.02 | 0.1 to 1 | 
8 | O=C(C1CCC(Nc2ncc(C(F)(F)F)c(-c3c[nH]c4ccccc34)n2)CN1)N1CCC(O)C1 (mixture of isomers) [Compound 250] | 0.2 to 5 | 0.2 to 5 | < 0.02 | > 5 |  | 1 to 5 | IC50 (A673 cells): 0.2 to 5 µM
9 | FC(F)(F)c1cnc(N[C@H]2CCCNC2)nc1-c1c[nH]c2cc(-c3cccc(Oc4ccccc4)c3)ccc12 [Compound 341, 4-[6-(3-phenoxyphenyl)-1H-indol-3-yl]-N-[(3S)-3-piperidyl]-5 (trifluoromethyl) pyrimidin-2-amine] | > 5 | > 5 | 0.2 to 5 | > 5 |  | 1 to 5 | IC50 (A673 cells): < 0.02 µM; IC50 ([1]; listed as 141): 0.2 to 5 µM; IC50 (CDK2/Cyclin E1 complex; listed as 141): 0.2 to 5 µM; IC50 ([2]; listed as 141): < 0.02 µM; IC50 (CDK9/Cyclin T1 complex; listed as 141): 0.2 to 5 µM; IC50 (HCC70 cells; listed as 141, read-out: Inhibition of Proliferation of HCC70 Cells (calculated IC50)): < 0.1 µM
10 | COCn1cc(-c2nc(NC3CCCNC3)ncc2C(F)(F)F)c2ccc(C#N)nc21 (centres unmarked) [Compound 283] | > 5 | > 5 | 0.2 to 5 | > 5 | 0.2 to 5 | 1 to 5 | 
11 | N#Cc1ccc2c(-c3nc(N[C@H]4CCCNC4)ncc3OC(F)F)c[nH]c2c1 [Compound 301, 3-[5-(difluoromethoxy)-2-[[(3S)-3-piperidyl]amino]pyrimidin-4-yl]-1H-indole-6-carbonitrile] | > 5 | > 5 | 0.02 to 0.2 | > 5 |  | 1 to 5 | 
12 | FC(F)(F)Sc1cnc(NC2CCCNC2)nc1-c1c[nH]c2ccccc12 (centres unmarked) [Compound 305, 4-(1H-indol-3-yl)-N-(piperidin-3-yl)-5-((trifluoromethyl)thio)pyrimidin-2-amine] | 0.2 to 5 | 0.2 to 5 | < 0.02 | 0.2 to 5 |  | 1 to 5 | 
13 | O=C1CCc2ccc(-c3ccc4c(-c5nc(N[C@H]6CCCNC6)ncc5C(F)(F)F)c[nH]c4c3)cc2N1 [Compound 334] | 0.2 to 5 | 0.2 to 5 | 0.02 to 0.2 | 0.2 to 5 |  |  | IC50 (HCC70 cells; [4]): 0.1 to 1 µM
14 | Cc1noc(C)c1-c1ccc2c(-c3nc(N[C@H]4CCCNC4)ncc3C(F)(F)F)c[nH]c2c1 [Compound 330] | 0.2 to 5 | 0.2 to 5 | < 0.02 | 0.2 to 5 |  |  | IC50 (HCC70 cells; [4]): < 0.1 µM

Continued, in another order:

Row | IC50 [1] [µM] | IC50 (CDK2/Cyclin E1 complex) [µM] | IC50 [2] [µM] | IC50 (CDK9/Cyclin T1 complex) [µM] | SMILES | IC50 (A673 cells; Homo sapiens, A673, 72 h) [µM] | IC50 (HCC70 cells; [3]) [µM] | also measured
15 | 0.2 to 5 | > 5 | 0.02 to 0.2 | > 5 | CP(C)(=O)c1ccc2c(-c3nc(N[C@H]4CCCNC4)ncc3C(F)(F)F)c[nH]c2c1 [Compound 354] |  | 1 to 5 | 
16 | 0.2 to 5 | 0.2 to 5 | 0.02 to 0.2 | > 5 | CC1(C)CNC[C@@H](Nc2ncc(C(F)(F)F)c(-c3c[nH]c4cc(S(C)(=O)=O)ccc34)n2)C1 [Compound 376, N-[(3S)-5,5-dimethyl-3-piperidyl]-4-(6-methylsulfonyl-1H-indol-3-yl)-5-(trifluoromethyl) pyrimidin-2-amine] |  | 0.1 to 1 | 
17 | 0.2 to 5 | 0.2 to 5 | < 0.02 | 0.2 to 5 | CN(C)S(=O)(=O)c1ccc2c(-c3nc(N[C@H]4CCCNC4)ncc3C(F)(F)F)c[nH]c2c1 [Compound 357, N,N-dimethyl-3-[2-[[(3S)-3-piperidyl]amino]-5-(trifluoromethyl)pyrimidin-4-yl]-1H-indole-6-sulfonamide] |  | 1 to 5 | 
18 | > 5 | > 5 | 0.02 to 0.2 | > 5 | CN1CCC[C@H](Nc2ncc(C(F)(F)F)c(-c3c[nH]c4cc(S(C)(=O)=O)ccc34)n2)C1 [Compound 364, N-[(3S)-1-methyl-3-piperidyl]-4-(6-methylsulfonyl-1H-indol-3-yl)-5-(trifluoromethyl)pyrimidin-2-amine] |  | 1 to 5 | 
19 | 0.2 to 5 | 0.2 to 5 | < 0.02 | 0.2 to 5 | N#Cc1ccc2c(-c3nc(N[C@@H]4CNCC[C@H]4F)ncc3C(F)(F)F)c[nH]c2c1 [Compound 351] |  | < 0.1 | 
20 | 0.2 to 5 | 0.2 to 5 | 0.02 to 0.2 | 0.2 to 5 | CC1CCNCC1Nc1ncc(C(F)(F)F)c(-c2c[nH]c3ccccc23)n1 (single isomer, unassigned) [Compound 372] |  |  | IC50 (HCC70 cells; [4]): 0.1 to 1 µM
21 | 0.2 to 5 | > 5 | 0.02 to 0.2 | > 5 | CS(=O)(=O)c1ccc2c(-c3nc(N[C@H]4CCCN(C5CC5)C4)ncc3C(F)(F)F)c[nH]c2c1 [Compound 381, N-[(3S)-1-cyclopropyl-3-piperidyl]-4-(6-methylsulfonyl-1H-indol-3-yl)-5-(trifluoromethyl) pyrimidin-2-amine] |  | 1 to 5 | 
22 | > 5 | > 5 | 0.02 to 0.2 | > 5 | CCP(=O)(CC)c1ccc2c(-c3nc(N[C@H]4CCCNC4)ncc3C(F)(F)F)c[nH]c2c1 [Compound 379] |  | 1 to 5 | 
23 | 0.2 to 5 | > 5 | 0.02 to 0.2 | > 5 | N#Cc1ccc2c(-c3nc(N[C@@H]4CNC[C@@H](F)C4)ncc3C(F)(F)F)c[nH]c2c1 [Compound 368, 3-[2-[[(3S,5S)-5-fluoro-3-piperidyl]amino]-5-(trifluoromethyl)pyrimidin-4-yl]-1H-Indole-6-carbonitrile] |  | 1 to 5 | IC50 ([1]; listed as 128): > 5 µM; IC50 (CDK2/Cyclin E1 complex; listed as 128): > 5 µM; IC50 ([2]; listed as 128): > 5 µM; IC50 (CDK9/Cyclin T1 complex; listed as 128): > 5 µM
